# In patent publication US20120189673A1, “POLYPEPTIDES AND USES THEREOF” (priority 2009, published 2012):
# B1: HRG: 67 kDa plasma protein histidine-rich glycoprotein, purified from human serum (protein, UniProt P04196 19-525, looked up)
# Histidine-rich glycoprotein: VSPTDCSAVEPEAEKALDLINKRRRDGYLFQLLRIADAHLDRVENTTVYYLVLDVQESDCSVLSRKYWNDCEPPDSRRPSEIVIGQCKVIATRHSHESQDLRVIDFNCTTSSVSSALANTKDSPVLIDFFEDTERYRKQANKALEKYKEENDDFASFRVDRIERVARVRGGEGTGYFVDFSVRNCPRHHFPRHPNVFGFCRADLFYDVEALDLESPKNLVINCEVFDPQEHENINGVPPHLGHPFHWGGHERSSTTKPPFKPHGSRDHHHPHKPHEHGPPPPPDERDHSHGPPLPQGPPPLLPMSCSSCQHATFGTNGAQRHSHNNNSSDLHPHKHHSHEQHPHGHHPHAHHPHEHDTHRQHPHGHHPHGHHPHGHHPHGHHPHGHHPHCHDFQDYGPCDPPPHNQGHCCHGHGPPPGHLRRRGPGKGPRPFHCRQIGSVYRLPPLRKGEVLPLPEANFPSFPLPHHKHPLKPDNQPFPQSVSESCPGKFKSGFPQVSMFFTHTFPK
# Legend:
# [1] = tested on: thrombin induced fibrin network formation in normal human plasma; assay: Clotting assay: thrombin clotting time (TCT); assay type: biochemical
# Procedure: (§1) Clotting assays. All clotting times were measured using an Amelung coagulometer. Activated partial thromboplastin time (aPTT) was measured by incubating the peptides diluted in sterile water at the indicated concentrations, with 100 μL citrated human plasma for 1 minute followed by the addition of 100 μL aPTT reagent (aPTT Automate, Diagnostica Stago) for 60 seconds at 37° C. Clotting was initiated by the addition of 100 μL of a 25-mM CaCl2 solution. In the prothombrin time assay (PT), clotting was initiated by the addition of 100 μL Thrombomax with calcium (PT reagent; Sigma-Aldrich). For measuring the thrombin clotting time (TCT), clotting was initiated by the addition of 100 μL Accuclot thrombin time reagent (TCT reagent; Sigma-Aldrich).
# [2] = Properties stated for FFF21 (FIG. 56)
# [3] = tested on: extrinsic pathway of coagulation in normal human plasma; assay: Clotting assay: prothrombin time (PT); assay type: biochemical
# Procedure: as §1
# [4] = tested on: intrinsic pathway of coagulation in normal human plasma; assay: Clotting assay: activated partial thromboplastin time (aPTT); assay type: biochemical
# Procedure: as §1
# RAW macrophages = assay: Nitric oxide induction in RAW macrophages by LPS with or without HRG; assay type: cell-based, murine; conditions: 24 hours
# Procedure: (§2) Nitric oxide induction in RAW macrophages. Confluent cells were harvested and transferred to 96-wells plate (3.5×10^5/well). After adhesion cells were washed with phenol red-free DMEM (Gibco). E. Coli LPS (100 ng/ml), LL-37 (2 or 10 μM) or HRG (2 or 10 μM) was preincubated at 37° C. for 30 minutes and then transferred to the cells. For inhibition of NO induction, 5 µg/ml anti mouse TLR4 antibody, 10 or 100 µM GHH25 or 100 µg/ml heparin were used. The cells were stimulated for 24 hours and nitric oxide was determined using the Griess chemical method.
# as §2, with “([…]).” for “(3.5×10^5/well).”, “For inhibition of NO induction, 5 µg/ml anti mouse TLR4 antibody, 10 or 100 µM GHH25 or 100 µg/ml heparin were used.” left out
# [5] = tested on: Human monocyte-derived macrophages; assay: TNF-α release from human macrophages; assay type: cell-based; conditions: 10 ng/ml LPS with or without HRG (2 μM); GHH25 10 and 100 μM; 24 hours
# Procedure: TNF-α release from human macrophages. Human monocyte-derived macrophages (hMDMs) were obtained from peripheral blood mononuclear cells (PBMCs) obtained from the blood of healthy donors using a Lymphoprep (Axis-Shield PoC AS) density gradient. PBMCs were seeded at concentrations of 3×10^6 cells/well into 24-well plates and cultured in RPMI1640 medium supplemented with 10% heat-inactivated autologous human plasma, 2 mM L-glutamine, and 50 μl/ml Antibiotic-Antimycotic (Gibco) in a humidified atmosphere of 5% CO2. After 24 h, non-adherent cells were removed and adherent monocytes were differentiated to macrophages for 10 days, with fresh medium changes every second day. […] After stimulation the supernatant was aspirated and TNF-α was measured using the TNF-α human ELISA kit (Invitrogen).
# [6] = tested on: E. coli LPS induced sepsis in wildtype C57BL/6 mice; assay: LPS induced sepsis in wildtype mice, treatment with GHH25; assay type: in vivo, mouse
# From the text: Animal experiments. The original knockout mice 129/B6-HRG^tm1wja1 were crossed with C57BL/6 mice (Taconic) for 14 generations to obtain uniform genetic background. These HRG-deficient mouse strain was called B6-HRG^tm1wja1 following ILAR (Institute of Laboratory Animal Resources) rules. Wildtype C57BL/6 control mice and C57BL/6 Hrg−/− mice (8-12 weeks, 27+/−4 g) were bred in the animal facility at Lund University. C57BL/6 Hrg^−/−, lacks the translation start point of exon 1 of the Hrg gene. Animals were housed under standard conditions of light and temperature and had free access to standard laboratory chow and water. In order to induce sepsis, 18 µg/g Escherichia coli 0111:B4 LPS were injected intraperitoneally into C57BL/6 or C57BL/6 Hrg−/− mice, divided into weight and sex matched groups. Survival and status was followed during seven days.
# For treatment with GHH25 peptide, 1 mg of the peptide (diluted in 10 mM Tris, pH 7.4) or buffer only was injected intraperitoneal 30 minutes after LPS-challenge and survival and status was then followed.
# Animal experiments. The original knockout mice 129/B6-HRG^tm1wja1 were crossed with C57BL/6 mice (Taconic) for 14 generations to obtain uniform genetic background. These HRG-deficient mouse strain was called B6-HRG^tm1wja1 following ILAR (Institute of Laboratory Animal Resources) rules. […]
# [7] = LPS-binding slot-blot assay with iodinated LPS; set-up: species or system Escherichia coli; conditions: 2 and 5 μg HRG on nitrocellulose; pH 7.4 or pH 5.5, with or without 0.15M NaCl
# Procedure: Radioiodination of heparin and LPS. The radioiodination of heparin (from porcine intestinal mucosa, Sigma-Aldrich) was performed as described previously. The iodination of LPS was performed as described by Ulevitch. 1 mg Escherichia coli 0111:B4 LPS was incubated in 50 mM p-OH benzimidate in borate buffer, pH 8, over night at 4° C., and then dialyzed against PBS, pH 7.4. LPS was then radiolabelled with ^125I using the chloramine T method, and unlabelled ^125I was then removed by dialysis.
# Heparin and LPS-binding assay. 1, 2 and 5 μg of the synthetic peptides in 100 μl PBS pH 7.4 were applied onto nitrocellulose membranes (Hybond-C, Amersham Biosciences) using a slot-blot apparatus. Membranes were blocked for 1 h at room temperature with 2% bovine serum albumin in PBS pH 7.4 and then incubated with radiolabelled LPS (˜40 μg·mL^−1, 0.13×10^6 cpm·μg^−1) or radiolabelled heparin (˜10 μg·mL^−1, 0.4×10^6 cpm·μg^−1) for 1 h at room temperature in PBS, pH 7.4. […] A Bas 2000 radio-imaging system (Fuji Film, Tokyo, Japan) was used to visualize radioactivity.
# Slot-blot assay. […] After LPS binding, membranes were washed 3 times, 10 min each time in the above buffers and visualized for radioactivity on Bas 2000 radioimaging system (Fuji, Japan). […]
# Heparin and LPS-binding assay. […] A Bas 2000 radio-imaging system (Fuji Film, Tokyo, Japan) was used to visualize radioactivity.
# Procedure for erythrocytes: Hemolysis assay. EDTA-blood was centrifuged at 800 g for 10 min, whereafter plasma and buffy coat were removed. The erythrocytes were washed three times and resuspended in PBS, pH 7.4 to get a 5% suspension. The cells were then incubated with end-over-end rotation for 60 min at 37° C. in the presence of peptides (60 μM). 2% Triton X-100 (Sigma-Aldrich) served as positive control. The samples were then centrifuged at 800 g for 10 min and the supernatant was transferred to a 96 well microtiter plate. The absorbance of hemoglobin release was measured at λ 540 nm and is in the plot expressed as % of TritonX-100 induced hemolysis.
molecule,measurement,setting,value
CC[C@H](C)[C@H](NC(=O)[C@H](CCCCN)NC(=O)[C@H](CCC(=O)O)NC(=O)[C@H](CCCCN)NC(=O)[C@H](CO)NC(=O)[C@H](CCCCN)NC(=O)[C@H](CCCNC(=N)N)NC(=O)[C@H](Cc1ccccc1)NC(=O)[C@H](Cc1ccccc1)NC(=O)[C@H](CC(=O)O)NC(=O)CNC(=O)[C@H](CC(C)C)NC(=O)[C@@H](N)CC(C)C)C(=O)NCC(=O)N[C@@H](CCCCN)C(=O)N[C@@H](CCC(=O)O)C(=O)N[C@@H](Cc1ccccc1)C(=O)N[C@@H](CCCCN)C(=O)N[C@@H](CCCNC(=N)N)C(=O)N[C@H](C(=O)N[C@H](C(=O)N[C@@H](CCC(N)=O)C(=O)N[C@@H](CCCNC(=N)N)C(=O)N[C@H](C(=O)N[C@@H](CCCCN)C(=O)N[C@@H](CC(=O)O)C(=O)N[C@@H](Cc1ccccc1)C(=O)N[C@@H](CC(C)C)C(=O)N[C@@H](CCCNC(=N)N)C(=O)N[C@@H](CC(N)=O)C(=O)N[C@@H](CC(C)C)C(=O)N[C@H](C(=O)N1CCC[C@H]1C(=O)N[C@@H](CCCNC(=N)N)C(=O)N[C@H](C(=O)N[C@@H](CCC(=O)O)C(=O)N[C@@H](CO)C(=O)O)[C@@H](C)O)C(C)C)[C@@H](C)CC)C(C)C)[C@@H](C)CC [LL-37],doses at which erythrocytes were readily permeabilized,erythrocytes,> 6 µM
"FFFAKLNCRLYRKANKSSKLV [FFF21, Antithrombin III-derived peptide, aa 153-173 of antithrombin III, P01008]",thrombin clotting time (TCT),[1],not significantly affected
same,antibacterial and antiinflammatory properties,[2],antibacterial and antiinflammatory properties
same,prothrombin time (PT),[3],not significantly affected
same,activated partial thromboplastin time (aPTT),[4],impairs the intrinsic pathway of coagulation
GHHPHGHHPHGHHPHGHHPHGHHPH [GHH25],LPS and HRG mediated NO release,"RAW macrophages; 100 ng/ml LPS with or without HRG (2 μM), GHH25 10 and 100 μM",significantly decreased
same,TNF-α (HRG and LPS induced responses),[5],inhibits HRG and LPS induced responses
same,survival,"[6]; 1 mg GHH25 i.p. 30 minutes after E. coli LPS, followed seven days, p=0.03",significantly increased survival
same,health status,"[6]; LPS induced sepsis, treatment with GHH25",Improved health status
B1,LPS mediated NO release,"RAW macrophages; 100 ng/ml LPS, HRG 2 and 10 μM, n=6, p=0.001",significantly increased
same,binding of iodinated LPS,[7],LPS-binding
